Laboratory results reported in patent US10526341B2, “Thienopyrimidines and uses thereof” (Memorial Sloan-Kettering Cancer Center, priority 2014, dated 2020).
“Also recorded” adds a separate entry of the source.

How the values were obtained:
SU-DIPGVI [1] = assay: TUNEL apoptosis assay; format: cell-based, human; conditions: pre-treatment 14.3
Procedure: (§1) Cell proliferation and apoptosis were assessed by immunofluorescence for Ki67 and TUNEL assays. After staining, Ki67 and TUNEL positive cells were manually counted to calculate a percentage of positive nuclei (see, e.g., FIG. 33). The pharmacokinetic profile of MI-2-2 was assessed by treating animals with 30 mg/kg and 60 mg/kg IP MI-2-2. Tail vein blood sampling and extraction of the pons was performed in animals at multiple time points and samples analyzed by LC-MS to generate a curve.

SU-DIPGIV [2] = assay: TUNEL apoptosis assay; format: cell-based, human; conditions: pre-treatment 7.6
Procedure: as §1

NPC [3] = assay: TUNEL apoptosis assay; format: cell-based, human; conditions: pre-treatment 3.8
Procedure: as §1

Fibroblasts [4] = assay: TUNEL apoptosis assay; format: cell-based, human; conditions: pre-treatment 0.4
Procedure: as §1

DIPGVI xenografts = assay: DIPGVI xenografts, bioluminescence imaging; format: in vivo, mice; conditions: 60 mg/kg daily intraperitoneal, at 4 weeks
Procedure: (§2) DIPG and glioblastoma cell lines were used to generate xenografts in NSG immunocompromised mice for in vivo testing. All lines used for xenografting were transfected lentiviral vectors encoding firefly luciferase to enable bioluminescence imaging (BLI). For DIPG xenografts, 100,000 DIGIV or DIPGVI cells were stereotactically injected into the pons of cold anesthetized P6 pups by transcutaneous injection. For GBM xenografts, 500,000 cells (030613 and 040114) were injected stereotactically into the striatum of 6 week old mice anesthetized with ketamine/xylazine cocktail. […] BLI was performed every week during treatment.
(§3) BLI was performed using the IVIS Lumina II system. D-Luciferin (10 uL of 15 mg/mL solution was instilled by retro-orbital injection in mice under […] anesthesia and 5 minute exposures were collected. Fold change over baseline pre-randomization imaging was calculated.

[5] = Pharmacokinetic profile of MI-2-2, blood and pons by LC-MS; format: in vivo, mice; conditions: 30 mg/kg systemic MI-2-2
Procedure: as §1
DIPIV xenografts were generated and are monitored monthly for BLI signal prior to randomization into treatment groups.

[6] = tested on: normal neural precursors (NPC); assay: MI-2-2 dose-response curve, cell survival (FIG. 19H); format: cell-based, human
Procedure: (§4) FIG. 19 depicts the chemical screen of the transformed NPCs. FIG. 19A is a schematic representation of the screening strategy. A mixture of GFP-labeled normal NPCs and RFP-labeled P5K cells in a 1:3 ratio were plated into 96-well plates and each compound in the library was added in a 2-fold serial dilution for a total of 8 doses. […] Error bars indicate S.D. (n=4). […] Intracranial growth of Luciferase-labeled P5K cells was measured by quantitative in vivo bioluminescence imaging. Values indicate fold change of luminescence before and after the treatment. […] Cells were treated with MI-2 for 7 days and the number of viable cells was counted by trypan-blue staining (n=4). Error bars in panels C-D, E, F and G indicate mean±S.D. *, p<0.05; **, p<0.01. NS, Not Significant. FIG. 19H represents a dose-response curve of MI-2-2.
(§5) The normal neural precursors are being analyzed for proof of maintained phenotype and differentiation ability, in further support of the safety profile of the drug used.

[7] = tested on: DIPG patient-derived tumor line; assay: as above; format: cell-based, human
Procedure: as §4, §5

fibroblasts (MRCS) [8] = assay: as above; format: cell-based, human
Procedure: as §4, §5

Glioblastoma 040114 [9] = assay: Ki67 immunofluorescence proliferation assay; format: cell-based, human; conditions: pre-treatment 56.0, *p < 0.05
Procedure: as §1

SU-DIPGVI [10] = assay: Ki67 immunofluorescence proliferation assay; format: cell-based, human; conditions: pre-treatment 26.5, *p < 0.05
Procedure: as §1

SU-DIPGIV [11] = assay: Ki67 immunofluorescence proliferation assay; format: cell-based, human; conditions: pre-treatment 34.9, *p < 0.05
Procedure: as §1

Glioblastoma 040811 [12] = assay: Ki67 immunofluorescence proliferation assay; format: cell-based, human; conditions: pre-treatment 28.4
Procedure: as §1

Glioblastoma 070909 [13] = assay: Ki67 immunofluorescence proliferation assay; format: cell-based, human; conditions: pre-treatment 18.2, *p < 0.05
Procedure: as §1

NPC [14] = assay: Ki67 immunofluorescence proliferation assay; format: cell-based, human; conditions: pre-treatment 10.6
Procedure: as §1

Glioblastoma 050715 [15] = assay: Ki67 immunofluorescence proliferation assay; format: cell-based, human; conditions: pre-treatment 11.9
Procedure: as §1

Glioblastoma 030613 [16] = assay: Ki67 immunofluorescence proliferation assay; format: cell-based, human; conditions: pre-treatment 30.4, *p < 0.05
Procedure: as §1

Fibroblasts [17] = assay: Ki67 immunofluorescence proliferation assay; format: cell-based, human; conditions: pre-treatment 29.6
Procedure: as §1

Astrocytes [18] = assay: Ki67 immunofluorescence proliferation assay; format: cell-based, human; conditions: pre-treatment 2.4
Procedure: as §1

042314 = assay: alamarBlue cell viability, 12 point dose response, seven days; format: cell-based, human; conditions: 042314, seven days
040114 xenografts = assay: GBM 040114 xenografts, bioluminescence imaging; format: in vivo, mice; conditions: 40 mg/kg BID, after three weeks
Procedure: as §2, §3

Glioblastoma 040114 [19] = assay: alamarBlue cell viability, 12 point dose response, seven days; format: cell-based, human; conditions: 040114, seven days
Procedure: (§6) Sensitivity to MI-2-2 was assessed by a 12 point dose response curve calculated after seven days of drug exposure and alamarBlue cell viability assay. Multiple patient tumor-derived DIPG (DIPGIV, DIPGVI, MSK-1, Peds8) and Glioblastoma (070909, 030613, 050715, 042315, 040811, 040114) were tested, with fibroblasts (MRCS), hES derived NPCs and astrocytes serving as controls (see FIGS. 29-33). Dose-response curves for the treatment of NPC, DIPGIV, and DIPGVI cell lines with MI-2-2, Panobinostat, and EPZ6438 are shown in FIG. 29.

SU-DIPGVI [20] = assay: as above; format: cell-based, human
Procedure: as §6

SU-DIPGIV [21] = assay: as above; format: cell-based, human
Procedure: as §6

Glioblastoma 040811 [22] = assay: as above; format: cell-based, human; conditions: 040811, seven days
Procedure: as §6

Glioblastoma 070909 [23] = assay: as above; format: cell-based, human; conditions: 070909, seven days
Procedure: as §6

Glioblastoma 050715 [24] = assay: as above; format: cell-based, human; conditions: 050715, seven days
Procedure: as §6

hES derived NPCs = assay: as above; format: cell-based, human; conditions: sub-micromolar doses
Procedure: as §6

Glioblastoma 030613 [25] = assay: as above; format: cell-based, human; conditions: 030613, seven days
Procedure: as §6

fibroblasts (MRCS) [26] = assay: as above; format: cell-based, human; conditions: sub-micromolar doses
Procedure: as §6

Astrocytes [27] = assay: as above; format: cell-based, human; conditions: sub-micromolar doses
Procedure: as §6

For CC1(C)CN=C(N2CCN(c3ncnc4sc(CC(F)(F)F)cc34)CC2)S1 [MI-2-2], the TUNEL % post-treatment (SU-DIPGVI [1]) was 14.3, 17.9%, the TUNEL % post-treatment (SU-DIPGIV [2]) was 7.6, 21.4% and the TUNEL % post-treatment (NPC [3]) was 3.8, 4.0%. The TUNEL % post-treatment (Fibroblasts [4]) was 0.4, 0.0%, the “BLI signal in DIPGVI xenografts” value (DIPGVI xenografts) was “no significant difference in BLI signal” and the “In vivo blood-brain barrier (BBB) penetration” value [5] was “penetration was demonstrated”. For the same compound, the “maintenance of therapeutic levels” value [5] was over 6 h, the “survival of normal neural precursors (NPC)” value [6] was “highly resistant; also recorded: minimal impact on the survival” and the IC50 [7] was 10 nM. For the same compound, the “survival of fibroblasts (MRCS)” value (fibroblasts (MRCS) [8]) was “highly resistant; also recorded: minimal impact on the survival”, the Ki67 % post-treatment (Glioblastoma 040114 [9]) was 56.0, 36.1* % and the Ki67 % post-treatment (SU-DIPGVI [10]) was 26.5, 14.4* %. The Ki67 % post-treatment (SU-DIPGIV [11]) was 34.9, 16.0* %, the Ki67 % post-treatment (Glioblastoma 040811 [12]) was 28.4, 22.5% and the Ki67 % post-treatment (Glioblastoma 070909 [13]) was 18.2, 10.8* %. The Ki67 % post-treatment (NPC [14]) was 10.6, 12.1%, the Ki67 % post-treatment (Glioblastoma 050715 [15]) was 11.9, 7.8% and the Ki67 % post-treatment (Glioblastoma 030613 [16]) was 30.4, 16.2* %. For the same compound, the Ki67 % post-treatment (Fibroblasts [17]) was 29.6, 27.5%, the Ki67 % post-treatment (Astrocytes [18]) was 2.4, 4.3% and the IC50 042314 was 26.1 nM. For the same compound, the “BLI signal fold change in 040114 xenografts” value (040114 xenografts) was “significant reduction in signal fold change”, the IC50 (Glioblastoma 040114 [19]) was 36.4 nM and the IC50 (SU-DIPGVI [20]) was 121 nM. It also gave an IC50 (SU-DIPGIV [21]) of 93.4 nM, an IC50 (Glioblastoma 040811 [22]) of 113 nM and an IC50 (Glioblastoma 070909 [23]) of 13.5 nM. The IC50 (Glioblastoma 050715 [24]) was 83.4 nM, the “depletion of NPCs” value (hES derived NPCs) was “not depleted at sub-micromolar doses” and the IC50 (Glioblastoma 030613 [25]) was 9.51 nM. For the same compound, the depletion of fibroblasts (fibroblasts (MRCS) [26]) was “not depleted at sub-micromolar doses” and the depletion of astrocytes (Astrocytes [27]) was “not depleted at sub-micromolar doses”.
